In patent US8598342B2, “Methods and compounds for antimicrobial intervention” (President and Fellows of Harvard College, priority 2008, dated 2013):
Entries after “also recorded” stand apart in the source; their conditions may differ. Where two headings read alike, the source gives them in different places.

How the values were obtained:
[1] = system: wildtype S. aureus RN4220; assay: MIC / growth inhibition of wildtype S. aureus RN4220 (optical density); type: cell-based; details: Staphylococcus aureus
Method: (§1) (A) Targocil MIC data for a panel of Gram-positive strains, including MRSA clinical isolates B5271 and 5340A. Growth was monitored in triplicate after 12 h at 28° C. using optical density. (B) Two dimensional drug interaction analysis between tunicamycin and targocil grown for 18 h at 30° C. […] At higher concentrations, tunicamycin is toxic because it inhibits cell wall biosynthesis. […] Varying concentrations of drug were added to […] of S. aureus RN4220 after 5 h and cell count was monitored over time at 30° C. […] Cells were grown at 28° C. for 12 h and monitored for growth using optical density (OD600). Data were normalized to the DMSO controls for each strain. (E) Two classes of mutants were examined: phage resistant (m1 3) and phage sensitive (m4-5).
A library of 55,000 small molecules was screened in duplicate at a concentration of ˜40 μM against S. aureus RN4220 and the corresponding ΔtarO strain using optical density to monitor growth. We obtained 45 initial hits and confirmed three lead compounds that inhibited the growth of the wildtype strain but had no activity against the ΔtarO strain. […] (FIG. 16A and FIG. 18) (Lazarevic V, Abellan F X, Moller S B, Karamata D, & Mauel C (2002) Microbiology-Sgm 148:815-824)
On the night before screening, a single colony of each strain was grown in TSB (Cm 10). On the day of screening, 384 well plates (Corning® 3710) were filled with […] of TSB (Cm 10). […]
The following day the plates were read using a Perkin Elmer Envision plate reader for both OD600 and fluorescence at the appropriate wavelength for Gfp ([…]) and Mcherry ([…]). Data were collected and analyzed to identify compounds that killed the wildtype strain but not the ΔtanO mutant. […]
For a secondary screen, hits from the primary screen were evaluated against wildtype and the ΔtarO mutant as described above, but the compound was investigated using a four point dose-response curve starting at a concentration of 50 μM and doing two-fold serial dilutions. […]

[2] = system: S. aureus strains, including five MRSA strains; assay: In vitro MIC against a panel of S. aureus strains including MRSA; type: cell-based, Staphylococcus aureus
Method: as §1
(G. Bou, (2007) Methods Mol Biol 391, 29)

B. subtilis 168 = assay: MIC panel of Gram-positive strains: B. subtilis 168; type: cell-based, Bacillus subtilis
Method: as §1

S. aureus TarD = molecular target: T1, S. aureus TarD (Staphylococcus aureus, UniProt Q2G2X2); assay: In vitro enzyme inhibition assay, TarD (radiometric); type: biochemical; details: targocil 50 μg/mL; enzyme 200 nM
T1 construct: made in house
T1 sequence (Q2G2X2 1-132): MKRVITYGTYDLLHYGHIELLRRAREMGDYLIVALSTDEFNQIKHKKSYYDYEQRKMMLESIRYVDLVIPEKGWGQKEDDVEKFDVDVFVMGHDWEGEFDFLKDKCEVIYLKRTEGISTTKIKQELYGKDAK
Method: S. aureus TarB, D, F, I, and L were cloned, overexpressed and purified as described previously (S. Brown, Y. H. Zhang, S. Walker, Chemistry & Biology 15, 12, Jan. 2008.) Radiometric in vitro assays were run to test the inhibitory effects of targocil on Tar B, D, F, and L, while TarI was assayed for targocil inhibition using an HPLC assay using conditions similar to those previously reported (ibid). See below for exact reaction conditions. […] In each case, a reaction with no targocil served as a negative control (active enzymatic reaction) and a reaction with heat-treated enzyme served as a positive control (no enzymatic reaction). Targocil was incubated with all reaction components except the substrates at room temperature. After 10 minutes, substrates were added and the reactions were allowed to proceed for 60 minutes. The reactions were quenched with DMF and the products were imaged/monitored as previously described (ibid).
TarD in vitro inhibition assay protocol and data. Each 3 μL reaction contained 50 mM HEPES pH 8, 10 mM MgCl2, 1 mM DTT, 1 μM [14C]-glycerol-3-phosphate, 9 μM glycerol-3-phosphate, 20 μM CTP, 200 nM TarD. The reactions were quenched with 3 μL DMF, and 2 μL of the reaction mixture were combined with 2 μL 2× loading dye (40% glycerol, 0.2% bromophenol blue) and loaded onto a 20% acrylamide/0.25M TBE gel as described previously (ibid.). […]

S. aureus RN4220 = assay: Kill curve analysis; type: cell-based, Staphylococcus aureus; details: 10^6 cfu/mL S. aureus RN4220, 30° C.
Method: as §1

[3] = system: S. aureus strain expressing B. subtilis 168 TagGH; assay: Growth of S. aureus RN4220 expressing B. subtilis 168 tagGH; type: cell-based, Staphylococcus aureus; details: 28° C., 12 h, OD600
Method: as §1

[4] = system: S. aureus RN4220 TarG:F82L (m4); assay: MIC analysis of RN4220 carrying the mutant tarG allele TarG:F82L; type: cell-based, Staphylococcus aureus; details: mutant allele exchanged into RN4220
Excerpt: Therefore, we conclude that TarG is a target of targocil. […] (Davidson A L, Dassa E, Orelle C, & Chen J (2008) Microbiology and Molecular Biology Reviews 72:317-364) In addition to functioning as antibiotics, inhibitors such as targocil, and derivatives thereof, could be valuable tools for mechanistic and structural analyses of ABC transporters.

`CCN(CC)c1nc2c(S(=O)(=O)c3ccccc3)nnn2c2ccc(Cl)cc12` [7-chloro-N,N-diethyl-3-(phenylsulfonyl)-[1,2,3]triazolo[1,5-a]quinazolin-5-amine] gave an MIC ([1]; read-out: minimum inhibitory concentration (MIC)) of 1.3 µg/mL, an MIC ([1]; result of the WTA inhibitor screen, read-out: minimum inhibitory concentration) of roughly 3 µM and an MIC ([1]; wildtype S. aureus RN4220, read-out: minimum inhibitory concentration (MIC)) of 3 µM. For the same compound, the “effectiveness against strains of S. aureus” value ([2]; RN4220, RN450, Newman strain, Wood strain) was “effective against numerous strains of S. aureus”, the “in vitro MIC values against all tested S. aureus strains” value ([2]; including five MRSA strains) was “low μg/mL range” and the “species selectivity of antibiotic activity” value ([2]; panel of Gram-positive strains) was “selective for S. aureus”. For the same compound, the “susceptibility of B. subtilis 168” value (B. subtilis 168) was “targocil resistance in B. subtilis 168”, the “inhibition of TarD” value (S. aureus TarD) was “None of these enzymes was inhibited” and the “mode of action in kill curve (bacteriostatic or bactericidal)” value (S. aureus RN4220) was “bacteriostatic”. The “resistance to targocil of strain expressing B. subtilis 168 TagGH” value [3] was “fully resistant; also recorded: complete resistance” and the “resistance to targocil of TarG:F82L strain” value [4] was “fully resistant; also recorded: confer resistance”.
